Reference: US20070128217A1 (priority 2003, published 2007)

Assays:
[1] = test system: recombinant human anti-SARS-CoV antibody 03-018; assay type: binding; design: Binding of antibody 03-018 to linear peptides of the N protein of SARS-CoV Urbani / Binding of antibody 03-018 to looped/cyclic peptides of the N protein of SARS-CoV Urbani: unit not given here
[2] = test system: antibodies in sera from SARS patients (sera 1a, 1b, 2, 6, 37, 62, London, SARS-yellow, SARS-green); assay type: binding, human; design: Binding of serum 6 to linear peptides of protein X1 of SARS-CoV Urbani / Binding of serum 37 to linear peptides of protein X1 of SARS-CoV Urbani / Binding of serum 6 to looped/cyclic peptide (PEPSCAN-ELISA) / Binding of serum 37 to looped/cyclic peptide (PEPSCAN-ELISA) / Binding of serum 37 to looped/cyclic peptides of protein X1 of SARS-CoV Urbani / Binding of serum 6 to linear peptides of protein X2 / Binding of serum 37 to linear peptides of protein X2 / Binding of serum 37 to looped/cyclic peptides of protein X2 of SARS-CoV Urbani / Binding of serum 6 to linear peptides of protein M of SARS-CoV Urbani / Binding of serum 37 to linear peptides of protein M of SARS-CoV Urbani / Binding of serum 6 to looped/cyclic peptides of protein M of SARS-CoV Urbani / Binding of serum 37 to looped/cyclic peptides of protein M of SARS-CoV Urbani / Binding of serum 6 to linear peptides of protein X3 of SARS-CoV Urbani / Binding of serum 37 to linear peptides of protein X3 of SARS-CoV Urbani / Binding of serum 37 to looped/cyclic peptides of protein X3 of SARS-CoV Urbani / Binding of serum 6 to linear peptides of protein X4 of SARS-CoV Urbani / Binding of serum 37 to linear peptides of protein X4 of SARS-CoV Urbani / Binding of serum 37 to looped/cyclic peptides of protein X4 of SARS-CoV Urbani / Binding of serum 6 to linear peptides of protein X5 of SARS-CoV Urbani / Binding of serum 37 to linear peptides of protein X5 of SARS-CoV Urbani / Binding of serum 37 to looped/cyclic peptides of protein X5 of SARS-CoV Urbani / Binding of serum 6 to linear peptides of protein N of SARS-CoV Urbani / Binding of serum 37 to linear peptides of protein N of SARS-CoV Urbani / Binding of serum 6 to linear peptide (PEPSCAN-ELISA) / Binding of serum 1a to looped/cyclic peptides of protein N of SARS-CoV Urbani / Binding of serum 1b to looped/cyclic peptides of protein N of SARS-CoV Urbani / Binding of serum 2 to looped/cyclic peptides of protein N of SARS-CoV Urbani / Binding of serum 6 to looped/cyclic peptides of protein N of SARS-CoV Urbani / Binding of serum 37 to looped/cyclic peptides of protein N of SARS-CoV Urbani / Binding of serum 62 to looped/cyclic peptides of protein N of SARS-CoV Urbani / Binding of serum London to looped/cyclic peptides of protein N of SARS-CoV Urbani / Binding of serum SARS-green to looped/cyclic peptides of protein N of SARS-CoV Urbani: unit not given here
[3] = test system: rabbit serum obtained by immunizing a rabbit with the SARS-CoV strain Frankfurt 1; assay type: binding; design: Binding of a rabbit serum to linear peptides / Binding of a rabbit serum to looped peptides / Rabbit serum linear peptides / Rabbit serum looped peptides / Binding of a rabbit serum to linear peptides of protein N of SARS-CoV Urbani (Rabbit serum linear peptides) / Binding of a rabbit serum to looped/cyclic peptides of protein N of SARS-CoV Urbani (Rabbit serum looped peptides): unit not given here
[4] = test system: control sera (pooled serum of ten healthy LUMC hospital workers; commercial negative donor pooled serum from the Dutch bloodbank); assay type: binding, human; design: Binding of Control serum LUMC to linear peptides / Binding of Control serum Blood-bank to linear peptides / Binding of Control serum LUMC to looped peptides / Binding of Control Serum Blood-Bank to Looped peptides / Binding of Control serum LUMC to linear peptides of the protein M of SARS-CoV Urbani / Binding of Control serum Blood-bank to linear peptides of the protein M of SARS-CoV Urbani / Binding of Control serum LUMC to looped peptides of the protein M of SARS-CoV Urbani / Binding of Control Serum Blood-Bank to Looped peptides of the protein M of SARS-CoV Urbani: unit not given here

| Sequence | Binding of antibody 03-018 to linear peptides of the N protein of SARS-CoV Urbani [1] | Binding of antibody 03-018 to looped/cyclic peptides of the N protein of SARS-CoV Urbani [1] | Binding of serum 1a to looped/cyclic peptides of protein N of SARS-CoV Urbani [2] | Binding of serum 1b to looped/cyclic peptides of protein N of SARS-CoV Urbani [2] | Binding of serum 2 to looped/cyclic peptides of protein N of SARS-CoV Urbani [2] | Binding of serum 6 to looped/cyclic peptides of protein N of SARS-CoV Urbani [2] | Binding of serum 37 to looped/cyclic peptides of protein N of SARS-CoV Urbani [2] | Binding of serum 62 to looped/cyclic peptides of protein N of SARS-CoV Urbani [2] | Binding of serum London to looped/cyclic peptides of protein N of SARS-CoV Urbani [2] | Binding of serum SARS-green to looped/cyclic peptides of protein N of SARS-CoV Urbani [2] | Binding of serum SARS-yellow to looped/cyclic peptides of protein N of SARS-CoV Urbani [2] | Binding of a rabbit serum to linear peptides of protein N of SARS-CoV Urbani (Rabbit serum linear peptides) [3] | Binding of a rabbit serum to looped/cyclic peptides of protein N of SARS-CoV Urbani (Rabbit serum looped peptides) [3] | Binding of Control Serum Blood-Bank to Looped peptides [4] | Binding of Control serum Blood-bank to linear peptides [4] | Binding of Control serum LUMC to linear peptides [4] | Binding of Control serum LUMC to looped peptides [4] | Binding of serum 1a to linear peptides of protein N of SARS-CoV Urbani [2] | Binding of serum 1b to linear peptides of protein N of SARS-CoV Urbani [2] | Binding of serum 2 to linear peptides of protein N of SARS-CoV Urbani [2] | further results |
| --- | --- | --- | --- | --- | --- | --- | --- | --- | --- | --- | --- | --- | --- | --- | --- | --- | --- | --- | --- | --- | --- |
| LPKGFYAEGSRGGSQ | 0.1 | 0.2 | 0.3 | 0.2 | 0.3 | 0.2 | 0.5 | 0.4 | 0.4 | 0.3 | 0.2 | 0.1 | 0.1 | 0.6 | 0.6 | 0.6 | 0.5 | – | – | – | Binding of serum 1a to linear peptide (PEPSCAN-ELISA) [2]: 0.2; Binding of serum 1b to linear peptide (PEPSCAN-ELISA) [2]: 0.1; Binding of serum 2 to linear peptide (PEPSCAN-ELISA) [2]: 0.2; Binding of serum 6 to linear peptide (PEPSCAN-ELISA) [2]: 0.1; Binding of serum 37 to linear peptide (PEPSCAN-ELISA) [2]: 0.6; Binding of serum 62 to linear peptide (PEPSCAN-ELISA) [2]: 0.6; Binding of serum London to linear peptide (PEPSCAN-ELISA) [2]: 0.4; Binding of serum SARS-green to linear peptide (PEPSCAN-ELISA) [2]: 0.2; Binding of serum SARS-yellow to linear peptide (PEPSCAN-ELISA) [2]: 0.5 |
| RNGARPKQRRPQGLP | 0.1 | 0.3 | 0.2 | 0.1 | 0.3 | 0.2 | 0.5 | 0.4 | 0.4 | 0.3 | 0.2 | 0.1 | 0.2 | 0.5 | 0.8 | 0.6 | 0.6 | 0.2 | 0.1 | 0.2 | Binding of serum 6 to linear peptides of protein N of SARS-CoV Urbani [2]: 0.2; Binding of serum 37 to linear peptides of protein N of SARS-CoV Urbani [2]: 0.6; Binding of serum 62 to linear peptides of protein N of SARS-CoV Urbani [2]: 0.6; Binding of serum London to linear peptides of protein N of SARS-CoV Urbani [2]: 0.5; Binding of serum SARS-green to linear peptides of protein N of SARS-CoV Urbani [2]: 0.4; Binding of serum SARS-yellow to linear peptides of protein N of SARS-CoV Urbani [2]: 0.5 |
| QGLPNNTASWFTALT | 0.1 | 0.3 | 0.4 | 0.3 | 0.5 | 0.3 | 0.7 | 0.7 | 0.5 | 0.6 | 0.7 | 0.1 | 0.6 | 0.8 | 0.6 | 0.7 | 0.8 | 0.2 | 0.1 | 0.2 | Binding of serum 6 to linear peptides of protein N of SARS-CoV Urbani [2]: 0.1; Binding of serum 37 to linear peptides of protein N of SARS-CoV Urbani [2]: 0.6; Binding of serum 62 to linear peptides of protein N of SARS-CoV Urbani [2]: 0.7; Binding of serum London to linear peptides of protein N of SARS-CoV Urbani [2]: 0.4; Binding of serum SARS-green to linear peptides of protein N of SARS-CoV Urbani [2]: 0.2; Binding of serum SARS-yellow to linear peptides of protein N of SARS-CoV Urbani [2]: 0.6 |
| GLPNNTASWFTALTQ | 0.1 | 0.3 | 0.4 | 0.2 | 0.4 | 0.3 | 0.7 | 0.7 | 0.4 | 0.6 | 0.5 | 0.1 | 0.4 | 0.8 | 0.7 | 0.6 | 0.7 | 0.2 | 0.1 | 0.2 | Binding of serum 6 to linear peptides of protein N of SARS-CoV Urbani [2]: 0.1; Binding of serum 37 to linear peptides of protein N of SARS-CoV Urbani [2]: 0.7; Binding of serum 62 to linear peptides of protein N of SARS-CoV Urbani [2]: 0.6; Binding of serum London to linear peptides of protein N of SARS-CoV Urbani [2]: 0.4; Binding of serum SARS-green to linear peptides of protein N of SARS-CoV Urbani [2]: 0.4; Binding of serum SARS-yellow to linear peptides of protein N of SARS-CoV Urbani [2]: 0.4 |
